Assays:
orbital fibroblasts [1] = assay: Differentiation of orbital fibroblasts into adipocytes; assay type: cell-based, human; details: parent strain, transient exposure; flow analysis
Description: FIGS. 13A-13D show induction of differentiation of Thy-1^− orbital fibroblasts into adipocytes by the […] ligand rosiglitazone. A control phase contrast of parental strain (B) flow cytometric analysis of parental strain showing absence of adipocytes (C) phase contrast post-differentiation showing adipocyte clusters (D) flow analysis showing 44% adipocyte differentiated.
An under-appreciated feature of the tissue remodeling associated with TAO is the expansion of the fat deposit. In fact, a number of surgical therapeutic strategies are aimed directly at reducing the mass of fat in TAO. These have been variably successful in reducing the mechanical embarrassment imposed by excessive fat volumes in TAO. […] While only a small fraction of orbital fibroblasts undergo differentiation into mature adipocytes, the fraction is invariant with regard to whether the fibroblasts were from a patient with TAO or from normal orbital tissues. While this discovery was of substantial interest to us, we realized that the differentiation of such a small fraction of cells might preclude determining the phenotypic changes accompanying them. However, referring to FIGS. 12A-12D, transient exposure to the PPARγ ligand (rosiglitazone) 45 to 65% of the cells in a parent strain matured to adipocytes showing that orbital fibroblasts express abundant PPARγ. […]

TAO fibroblasts = assay: PGE2 synthesis in TAO fibroblasts; assay type: cell-based, human; details: FIG. 7A
Method: FIGS. 7A and 7B show the up-regulation of PGE2 synthesis and blockage with SC58125 (a PGHS-2 inhibitor) and dexamethasone (7A) and PGHS-2 expression (7B) in TAO fibroblasts.
Referring to FIGS. 7A and 7B, CD40 ligation in orbital fibroblasts results in the induction of PGHS-2 and leads to the over-production of PGE2. […] CD40 ligation in these cultures results in the intermediate activation of IL-1α gene expression. This induction occurs after 6 h of treatment and is mediated at the pre-translational level. IL-1β is undetectable in orbital fibroblasts and is not induced by CD154. Interrupting the expression, receptor binding or activity of IL-1α attenuates the induction of PGHS-2 provoked by CD40 ligation. It is notable that CD40 is over-expressed by thyroid epithelium in Graves' disease and provokes constitutive PGHS-2 expression. Moreover, functional CD40 is expressed by human thyroid fibroblasts.

IL-16 and RANTES = assay: Expression of IL-16 and RANTES (FIG. 4); assay type: cell-based
Description: Referring to FIG. 5, these findings on the role of IL-16 and RANTES in the fibroblast/lymphocyte inflammation cascade provide options for therapies for TAO, RA and other antibody-mediated inflammatory auto-immune disorders. The method of the therapeutic aspect of the invention involves inhibiting the activity of the two chemoattractant molecules that are substantial contributors to the inflammation cascade, IL-16 and RANTES. IL-16 inhibitors include, but are not limited to, rapamycin, wortmannin, caspase-3 inhibitor, and anti-IL-16 antibody. RANTES inhibitors include, but are not limited to, SB203580, and anti-RANTES antibody. […] These compounds either block translation of the chemoattractant molecules, prevent release of chemoattractant molecules from the cell after they are translated, or neutralize the chemoattractant molecules' ability to cause lymphocytic chemotaxis after they are released.

RANTES = RANTES ELISA of medium from treated fibroblasts, GD donors; assay type: cell-based, human; details: TAO orbital fibroblasts; IGF-1 10 nM, TSH high concentrations
Description: (§1) In addition to its therapeutic aspects, the present invention also relates to a diagnostic method for detecting the presence of antibody-activated fibroblasts in the patient. Applicants believe that several auto immune diseases or disorders are associated with antibody-activated fibroblasts. […] Altered levels of these chemoattractants can be detected in various biological samples in mammals, preferably humans. Levels of IL-16 and/or RANTES may be monitored in a patient, using standard techniques, as an indication of the deleterious aspects of the disease condition. Biological samples, including but not limited to serum, vitreous humor, aqueous humor, synovial fluid, and tissue, will be drawn from the patient using standard techniques. Particularly preferred are serum samples. The measurement of the IL-16 and RANTES levels may be monitored using any method possible to detect the levels of these proteins in biological samples. A preferred method of analysis is by ELISA as described in Sciaky, D. et al., J. Immunol. 164(7):3806-14, 2000. An ELISA specific for IL-16 can be used to assess the levels released by fibroblasts as described previously in Lim, K. G. et al., J. Immunol. 156(7): 2566-70, 1996. An ELISA specific for RANTES can be used according to the manufacturer's specification (BioSource Intl., Camarillo, Calif.).
(§2) The levels of IL-16 and RANTES were then assessed with specific ELISAs. The ELISA assay for IL-16 is performed essentially as discussed in Sciaky D., Brazer, W., Center, D. M., Cruikshank, W. W. and Smith, T. J.: Cultured human fibroblasts express constitutive IL-16 mRNA: Cytokine induction of active IL-16 protein synthesis through a caspase-3-dependent mechanism. J. Immunol. 164(7):3806-14, 2000). An ELISA (BioSource) for RANTES was performed according to the manufacturer's instructions.

IL-16 = IL-16 ELISA of medium from treated fibroblasts, GD donors; assay type: cell-based, human; details: TAO orbital fibroblasts; IGF-1 10 nM, TSH high concentrations
Description: as §1, §2

orbital fibroblasts [2] = assay: IL-6 and IL-8 synthesis in orbital fibroblasts on CD40 ligation; assay type: cell-based, human; details: orbital fibroblasts treated with rCD154
Description: These include IL-6 and IL-8, two important molecules critical to the activation and trafficking of bone marrow derived cells to sites of inflammation and which have been implicated in Graves' disease. […] Nuclear translocation of NF-κB is provoked by CD40 ligation and inhibiting the activation of this transcriptional factor by stabilizing the NF-κB/IκB complex can block the induction of both IL-6 and IL-8.

CN(CCOc1ccc(CC2SC(=O)NC2=O)cc1)c1ccccn1 (stereo not shown) [rosiglitazone]
cells matured (differentiated) to adipocytes (orbital fibroblasts [1]): 44%

CS(=O)(=O)c1ccc(-n2nc(C(F)(F)F)cc2-c2ccc(F)cc2)cc1 [SC58125]
effect on up-regulation of PGE2 synthesis (TAO fibroblasts): blockage

COc1cccc(-c2cc(=O)c3ccccc3o2)c1N [PD098059]
effect on IL-16 and RANTES expression (IL-16 and RANTES): inhibition of expression

C[S+]([O-])c1ccc(-c2nc(-c3ccncc3)c(-c3ccc(F)cc3)[nH]2)cc1 (stereo not shown) [SB203580]
effect on IL-16 and RANTES expression (IL-16 and RANTES): inhibition of expression

IGF-1: authentic IGF-1, ligand of the IGF-1 receptor
induction of RANTES expression by the substance itself (RANTES): mimicked
induction of IL-16 expression by the substance itself (IL-16): mimicked

B1: rCD154: recombinant CD40 ligand, member of the TNF-α superfamily (protein, UniProt P29965 113-261, looked up)
CD40 ligand, soluble form: MQKGDQNPQIAAHVISEASSKTTSVLQWAEKGYYTMSNNLVTLENGKQLTVKRQGLYYIYAQVTFCSNREASSQAPFIASLCLKSPGRFERILLRAANTHSSAKPCGQQSIHLGGVFELQPGASVFVNVTDPSQVSHGTGFTSFGLLKL
synthesis of both IL-6 and IL-8 (orbital fibroblasts [2]): dramatically increased
